Paper PMC10730845, “Endoxifen downregulates AKT phosphorylation through protein kinase C beta 1 inhibition in ERα+ breast cancer” (NPJ Breast Cancer, 2023)
Where two headings read alike, the source gives them in different places.

Key:
[1] = system: PKCβ1 and AKT^Ser473 phosphorylation in HEK293F cells; test: Immunoblot of PKCβ1 and pAKT^Ser473, HEK293F; assay type: cell-based, human; details: 5 µM, 2 h pretreatment, 100 nM insulin 1 h
Text: To determine whether the observed effects of ENDX on PKCβ1 degradation and AKT^Ser473 phosphorylation inhibition are dependent on the presence of ERα, we additionally evaluated ENDX effects on PKCβ1 degradation and AKT^Ser473 phosphorylation in the ER negative (ER-) MDAMB231 breast cancer cells and nonbreast HEK293F cells, a human embryonic kidney cell line, both of which express higher amounts of PKCβ1 compared to ERα+ MCF7AC1 cells (Supplementary Fig. 5a). […] To determine whether the addition of ERα to the MDAMB231 cell line could facilitate ENDX effects on PKCβ1, we performed doxycycline (dox)-induced ERα protein expression in MDAMB231 cells and evaluated ENDX effects on PKCβ1 using the above-mentioned experimental conditions. […] Additionally, we pretreated MDAMB231 and HEK293F cells with or without 5 µM ENDX for 1 h followed by 0 or 200 nM PMA treatment for 20 min and evaluated effects on PKCβ1.
Supplementary Figure 5. Effects of ENDX on PKCβ1, phospho -PKCB1Ser661 and phospho-AKTSer473 expression levels in ERα- breast cancer cells. a, Basal expression of PKCβ1 and ERα in the indicated cell lines. […]

[2] = system: MCF7AC1 cells; test: Crystal violet cell viability / proliferation assay, MCF7AC1; assay type: cell-based, human; details: CSS medium, 48 h, 0 to 10 µM tested
Protocol: Fig. 1 Z-endoxifen (ENDX) effects on cell viability and apoptosis in estrogen deprived ERα+ /HER2- MCF7AC1 cells. a Cells grown in CSS medium were treated with vehicle control or the indicated ENDX concentrations for […]. Cell viability was assessed by the crystal violet assay. b Cells were co-treated with vehicle control or the indicated ENDX concentrations, IncuCyte Annexin V green and NucLight red reagents in CSS medium for 48 h. […] Data represents the mean of six wells per treatment performed as biological duplicates ± s.d. **p ≤ 0.01; ***p ≤ 0.001; ****p ≤ 0.0001 by one-way ANOVA.
Cells were plated at a density of 2000 cells per well. Cell viability of (i) vehicle or drug treated MCF7AC1 and T47D-LTED cells in CSS medium, (ii) siNT or siPKCβ-transfected MCF7AC1 cells in CSS medium and (iii) T47D cells in FBS versus CSS medium were analyzed by crystal violet staining assay after 6 days of treatment or siRNA transfection as previously described. Cell viability was calculated as the average absorbance of the drug treated cells divided by the average absorbance of the vehicle treated cells × 100.

[3] = target: PKC alpha (PKCa) (Homo sapiens, UniProt P17252); test: In vitro kinase assay, PKC alpha; assay type: biochemical; details: 10 μM ATP
Text: (§1) Supplementary Table 4. In vitro kinase assay showing the IC 50 concentration of ENDX and
(§2) of the 12 PKC family members.
(§3) (1 picture or pasted object on this page, not shown here)

[4] = system: MCF7AC1 xenograft tumors; test: Immunoblot of MCF7AC1 xenograft tumor lysates after in vivo treatment; set-up: species or system mice; details: four weeks
Protocol: Protein lysates were prepared using the RIPA lysis buffer system (ChemCruz #sc-24948) and quantified using the DC^TM Protein Assay reagents (Bio-Rad #5000112). Equal amounts of protein lysates were separated on 10% Criterion gels (Bio-Rad #3450112), transferred to PVDF membranes (Bio-Rad #1620177), blocked in TBST-5% milk and probed with primary antibodies listed in Supplementary Table 5, at the indicated dilutions. Membranes were incubated with HRP-conjugated anti-rabbit (CST #7074) or anti-mouse (CST #7076) secondary antibodies and visualized using chemiluminescent West Pico (Thermo Scientific #34580) or West Femto (Thermo Scientific #34096) reagents and a Li-Cor Odyssey® XF imager. Protein lysates from the MCF7AC1 xenograft model were obtained from a previous study. Quantitation of the protein bands signal intensity was performed using the NIH ImageJ image analysis software (https://imagej.nih.gov/ij///index.html). For the quantitation of the phospho protein levels, we first normalized total protein levels to β-actin loading control and used these values to normalize the phospho protein levels and compared change in protein expression levels relative to vehicle control normalized to 1.0. For the quantitation of total protein levels, we normalized the total protein levels to β-actin and compared change in expression levels relative to vehicle control normalized to 1.0. All blots were processed in parallel and derived from the same experiments. Unprocessed immunoblot images are provided in Supplementary Figs. 9–13.
Supplementary Figure 2. […]
Supplementary Figure 6. […]
MK-2206 in CSS medium for 24 hours. IB assay of pAKTSer473, AKT, PARP, cleaved PARP and
β-actin. d, MCF7AC1 xenograft protein lysates were treated with the indicated drugs for four
weeks. […]
ANOVA for figs. (a), (b), (g), (h) and (i) and unpaired t test for fig. (e).

[5] = target: PKC zeta (PKCz) (Homo sapiens, UniProt Q05513); test: In vitro kinase assay, PKC zeta; assay type: biochemical; details: 10 μM ATP
PKC zeta (PKCz), sequence (Q05513 whole entry): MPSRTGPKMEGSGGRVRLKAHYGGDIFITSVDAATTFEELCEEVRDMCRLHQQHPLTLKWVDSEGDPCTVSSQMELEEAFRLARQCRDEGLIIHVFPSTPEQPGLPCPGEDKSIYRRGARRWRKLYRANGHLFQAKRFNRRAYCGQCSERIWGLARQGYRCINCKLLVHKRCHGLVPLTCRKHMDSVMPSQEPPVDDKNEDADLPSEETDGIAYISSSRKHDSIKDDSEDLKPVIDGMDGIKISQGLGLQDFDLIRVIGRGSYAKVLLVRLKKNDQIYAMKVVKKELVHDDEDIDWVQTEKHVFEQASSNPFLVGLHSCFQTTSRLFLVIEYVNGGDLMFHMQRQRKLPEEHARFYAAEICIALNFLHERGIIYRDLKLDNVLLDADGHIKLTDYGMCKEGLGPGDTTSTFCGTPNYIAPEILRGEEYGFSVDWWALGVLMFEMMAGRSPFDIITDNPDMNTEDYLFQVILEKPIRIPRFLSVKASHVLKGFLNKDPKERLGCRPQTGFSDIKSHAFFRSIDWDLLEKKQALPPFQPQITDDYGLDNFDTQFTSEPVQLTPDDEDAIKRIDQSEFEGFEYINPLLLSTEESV
Text: as §1, §2, §3

[6] = phase I, cited from earlier work; for Cmax: read-out: Peak serum concentration (Cmax)

## CC/C(=C(\c1ccc(O)cc1)c1ccc(OCCNC)cc1)c1ccccc1 [ENDX, Z-endoxifen]
[1]
  Effect on PKCβ1 protein levels: did not impact PKCβ1 protein levels
  Effect on insulin induced AKT^Ser473 phosphorylation: did not inhibit this phosphorylation
[2]
  Concentrations that significantly reduced cell viability: ≥ 2.5 µM
[3]
  IC50: > 50 µM
[4]; 75 mg/kg
  Effect on AKT phosphorylated substrates in tumors: reduced the levels of AKT phosphorylated substrates
  Effect on AKT^Thr308 phosphorylation in tumors: no appreciable impact on AKT^Thr308 phosphorylation
[4]; 75 mg/kg, vs control treatment
  Effect on AKT^Ser473 phosphorylation in tumors: attenuated AKT^Ser473 phosphorylation
[4]; not at 25 mg/kg
  Dose increasing PARP cleavage in tumors: 75 mg/kg
[5]
  IC50: 48.1 µM
[6]; Day 28, 80 mg/day
  Peak serum concentration (Cmax): 913 ± 142 ng/mL
  Cmax: 2.44 ± 0.38 µM
[6]; Day 28, 200 mg/day
  Peak serum concentration (Cmax): 1641 ± 830 ng/mL
  Cmax: 4.39 ± 2.22 µM
